Assay results from article PMC9686653, “Bioengineered Nisin A Derivatives Display Enhanced Activity against Clinical Neonatal Pathogens” (Antibiotics, 2022).
≈ marks a conversion by molar mass, not a printed value. Entries after “also recorded” stand apart in the source; their conditions may differ. Where two headings read alike, the source gives them in different places. Marks after values point to notes of the source that are not given here.

What was measured:
S. agalactiae strains = test: Broth MIC assay, summary over isolates; format: cell-based, Streptococcus agalactiae; conditions: for MIC: Streptococcus agalactiae, read-out: MIC values over S. agalactiae strains, span over the isolates the sentence refers to (three, four or all five)
Description: (§1) MIC determinations were carried out in triplicate in 96-well microtiter plates (Sarstedt, Newton, NC, USA) as previously described. Initially, 200µL of 1% bovine serum albumin (BSA) (Sigma-Aldrich, St. Louis, MO, USA) (in PBS) was added to the plates which were incubated at 37 °C for 30 min. The solution was removed, plates were washed with 200 µL PBS and then air dried in a laminar flow hood. Target strains (Streptococcus agalactiae, Staphylococcus capitis and Lactococcus lactis) were grown overnight in suitable media under appropriate conditions and were subsequently sub-cultured into fresh broth and allowed to grow to an optical density of ~0.5 (OD600). The culture was then diluted to a final concentration of 10^5 CFU mL^−1 in a volume of 1 mL. The peptides were resuspended in appropriate media to a stock concentration of […] (S. agalactiae and S. capitis strains) and […] (L. lactis strains). Nisin A and nisin derivatives were adjusted to a starting concentration of 15 µM (S. agalactiae and S. capitis strains) or 5 µM (L. lactis strains). […] An aliquot of 100 µL of peptides and or antibiotics were added to the first well, mixed and then 2-fold serial dilutions of each peptide were made in TSBYE broth. Then, 100 µL of target strain was added to each test well, and the plates were incubated at 30 °C or 37 °C for 16 h. The MIC was read as the lowest peptide concentration causing inhibition of visible growth. Experiments were performed in triplicate.

S. agalactiae CIT 87 = test: Broth MIC assay; format: cell-based, Streptococcus agalactiae; conditions: Streptococcus agalactiae, CIT87; broth microdilution in TSBYE, 10^5 CFU/mL, 16 h, 37 °C; average of three independent biological repeats; read-out: MIC
Description: as §1

S. agalactiae CIT 239 = test: Broth MIC assay; format: cell-based, Streptococcus agalactiae; conditions: Streptococcus agalactiae
Description: as §1

S. agalactiae CIT 85 = test: Broth MIC assay; format: cell-based, Streptococcus agalactiae; conditions: for MIC: Streptococcus agalactiae
Description: as §1

S. agalactiae CIT 67 = test: Broth MIC assay; format: cell-based, Streptococcus agalactiae; conditions: Streptococcus agalactiae, CIT67; broth microdilution in TSBYE, 10^5 CFU/mL, 16 h, 37 °C; average of three independent biological repeats; read-out: MIC
Description: as §1

S. agalactiae CIT 364 = test: Broth MIC assay; format: cell-based, Streptococcus agalactiae; conditions: Streptococcus agalactiae, CIT364; broth microdilution in TSBYE, 10^5 CFU/mL, 16 h, 37 °C; average of three independent biological repeats; read-out: MIC
Description: as §1

S. capitis AY41 = test: microbe, parasite or virus in culture; format: cell-based, Staphylococcus capitis; conditions: for MIC: 16 h
Description: as §1

S. capitis AR18 = test: Broth MIC assay; format: cell-based; conditions: Staphylococcus capitis, AR18; broth microdilution in TSBYE, 10^5 CFU/mL, 16 h, 37 °C; average of three independent biological repeats; read-out: MIC
Description: as §1

S. capitis AV80 [1] = test: Broth MIC assay; format: cell-based; conditions: Staphylococcus capitis, AV80; broth microdilution in TSBYE, 10^5 CFU/mL, 16 h, 37 °C; average of three independent biological repeats; read-out: MIC
Description: as §1

S. capitis BA06 = test: Broth MIC assay; format: cell-based, Staphylococcus capitis; conditions: for MIC: Staphylococcus capitis, BA06, broth microdilution in TSBYE, 10^5 CFU/mL, 16 h, 37 °C, average of three independent biological repeats, read-out: MIC
Description: as §1

S. capitis BD01 = test: Broth MIC assay; format: cell-based, Staphylococcus capitis; conditions: Staphylococcus capitis, BD01; broth microdilution in TSBYE, 10^5 CFU/mL, 16 h, 37 °C; average of three independent biological repeats; read-out: MIC
Description: as §1

S. capitis strains = test: Broth MIC assay, summary over isolates; format: cell-based, Staphylococcus capitis
Description: as §1, with “Then, 100 µL of target strain was added to each test well, and the plates were incubated at 30 °C or 37 °C for 16 h.” left out, “Experiments were performed in triplicate.” left out

[2] = test system: clinical isolates of S. agalactiae (n = 5) and S. capitis (n = 5); test: Deferred antagonism agar-based assay; format: cell-based, Streptococcus agalactiae, Staphylococcus capitis; conditions: pathogenic indicators, n = 10; listed as nisin PV
Description: All plates were supplemented with sub-inhibitory concentration (10 µg/L) of nisin in the form of nisaplin to ensure induction of the nisin mutants.
Site-saturation mutagenesis of three codons, including threonine, lysine and methionine, at positions 2, 12 and 17 of the nisA gene, was carried out as described previously. Briefly, pDF23 (pCI372-PV) was used as a template and oligonucleotides, NisT2deg-FOR and REV, NisK12deg-FOR and REV and Nis17deg-FOR and REV, containing an NNK codon potentially encoding for all twenty standard amino acids. Deferred antagonism agar-based assays were employed to assess the bioactivity of the nisin derivatives (PV, K12X-PV, T2X-PV, and M17X-PV) produced by each strain. Briefly, fresh overnight cultures of each L. lactis test culture was replicated on GM17/TSBYE agar plates containing 0.1% nisaplin using a 96-pin replicator (Boekel, Feasterville, PA, USA) and incubated overnight at 30 °C before being exposed to ultraviolet radiation for 45 min. The plates were then overlayed with GM17/TYSBYE agar (0.75% agar) and seeded (0.5% inoculum) with either Lactococcus lactis MG1614 (NSR-), the nisin resistance protein-expressing indicator strain L. lactis MG1614 pNP40 (NSR+) or TSBYE agar seeded with Staphylococcus capitis (NSR+) or Streptococcus agalactiae (NSR+) isolates. […]

S. capitis AV80 [3] = test: Time-kill curve analysis; format: cell-based, Staphylococcus capitis; conditions: nisin peptides […] (1/4 MIC), ampicillin 3.75 µg/mL (1/4 MIC); re-growth after 6 h
Description: The means and standard deviations of three independent determinations are presented.
During incubation, 100µL of each sample was taken at 0, 2, 4, 6 and 24 h. Cell growth was assessed by performing viable cell counts by diluting cultures in PBS solution and enumeration on TSBYE plates. Synergism was defined as ≥2 log10 CFU/mL reduction with the combination of antimicrobials relative to either antimicrobial alone after 24 h. A 1–2 log10 reduction in CFU/mL was defined as an additive effect and an increase or decrease of <1 log10 was defined as an indifferent effect. An antagonistic effect was defined as >2 log10 increase in CFU/mL after 24 h [28]. Experiments were performed in triplicate.

[4] = test system: nisin resistance protein (NSR); conditions: cited from earlier work
[5] = CIT239, broth microdilution in TSBYE, 10^5 CFU/mL, 16 h, 37 °C, average of three independent biological repeats, read-out: MIC
[6] = CIT85, broth microdilution in TSBYE, 10^5 CFU/mL, 16 h, 37 °C, average of three independent biological repeats, read-out: MIC
[7] = Staphylococcus capitis, AY41, broth microdilution in TSBYE, 10^5 CFU/mL, 37 °C, average of three independent biological repeats, read-out: MIC

SMILES | MIC (S. agalactiae strains) | MIC (S. agalactiae CIT 87) | MIC (S. agalactiae CIT 239; [5]) | MIC (S. agalactiae CIT 85; [6]) | MIC (S. agalactiae CIT 67) | MIC (S. agalactiae CIT 364) | MIC (S. capitis AY41; [7]) | MIC (S. capitis AR18) | MIC (S. capitis AV80 [1]) | MIC (S. capitis BA06) | MIC (S. capitis BD01) | further results
CC1(C)S[C@@H]2[C@H](NC(=O)[C@H](N)c3ccccc3)C(=O)N2[C@H]1C(=O)O [Ampicillin, ampicillin] | 0.78 to 1.56 µg/mL (≈ 2.23 to 4.46 µM) | 0.78 µg/mL (≈ 2.23 µM) | 0.097 µg/mL (≈ 0.278 µM) | 0.097 µg/mL (≈ 0.278 µM) | 1.56 µg/mL (≈ 4.46 µM) | 0.78 µg/mL (≈ 2.23 µM) | – | – | – | – | – | –
CC[C@H]1OC(=O)[C@H](C)[C@@H](O[C@H]2C[C@@](C)(OC)[C@@H](O)[C@H](C)O2)[C@H](C)[C@@H](O[C@@H]2O[C@H](C)C[C@H](N(C)C)[C@H]2O)[C@](C)(O)C[C@@H](C)C(=O)[C@H](C)[C@@H](O)[C@]1(C)O [Erythromycin, erythromycin] | 0.78 to 3.13 µg/mL (≈ 1.06 to 4.26 µM) | 0.39 µg/mL (≈ 0.531 µM) | – | – | 1 µg/mL (≈ 1.36 µM) | 0.78 µg/mL (≈ 1.06 µM) | 0.195 µg/mL (≈ 0.266 µM) | 0.097 µg/mL (≈ 0.132 µM) | 12.5 µg/mL (≈ 17 µM) | 12.5 µg/mL (≈ 17 µM) | 6.25 µg/mL (≈ 8.52 µM) | MIC (S. agalactiae CIT 239; CIT239, 16 h): 1.56 µg/mL (≈ 2.13 µM); MIC (S. agalactiae CIT 85; CIT85, 16 h): 3.13 µg/mL (≈ 4.26 µM)
CNC(C)C1CCC(N)C(OC2C(N)CC(N)C(OC3OCC(C)(O)C(NC)C3O)C2O)O1 (stereo not shown) [Gentamicin, gentamicin] | – | 25 µg/mL (≈ 52.3 µM) | 25 µg/mL (≈ 52.3 µM) | 6.25 µg/mL (≈ 13.1 µM) | 25 µg/mL (≈ 52.3 µM) | 25 µg/mL (≈ 52.3 µM) | 0.39 µg/mL (≈ 0.817 µM) | > 50 µg/mL | > 50 µg/mL | > 50 µg/mL | > 50 µg/mL | MIC (S. capitis strains; Staphylococcus capitis, span over the isolates the sentence refers to (four or all five)): > 50 µg/mL
C=C(NC(=O)[C@@H](NC(=O)[C@H](Cc1c[nH]cn1)NC(=O)[C@@H](NC(=O)[C@@H]1CCCN1C(=O)[C@@H]1CS[C@@H](C)[C@H]2NC(=O)[C@H](C)NC(=O)[C@H](NC(=O)[C@H](CCCCN)NC(=O)[C@H](CCSC)NC(=O)[C@H](CC(N)=O)NC(=O)[C@@H]3CS[C@@H](C)[C@@H](NC(=O)[C@H](CCCCN)NC(=O)[C@@H]4CS[C@@H](C)[C@@H](NC(=O)[C@@H]5CSC[C@@H](NC(=O)/C(=C/C)NC(=O)[C@@H](N)[C@@H](C)CC)C(=O)N[C@@H]([C@@H](C)CC)C(=O)NC(=C)C(=O)N[C@@H](CC(C)C)C(=O)N5)C(=O)N5CCC[C@H]5C(=O)NCC(=O)N4)C(=O)NCC(=O)N[C@@H](C)C(=O)N[C@@H](CC(C)C)C(=O)N[C@@H](CCSC)C(=O)NCC(=O)N3)[C@H](C)SC[C@H](NC2=O)C(=O)N[C@@H](Cc2c[nH]cn2)C(=O)N1)C(C)C)C(C)C)C(=O)N[C@@H](CCCCN)C(=O)O [PV] | – | – | – | – | – | – | – | – | – | – | – | fold increase in potency compared to nisin A (S. agalactiae strains; four of the five S. agalactiae strains, from MIC): 2 fold; fold decrease in potency compared to nisin A (S. agalactiae CIT 85; from MIC): 2 fold; bioactivity (zone of inhibition) of the producing strain [2]: improved antimicrobial activity against all strains tested; also recorded: greatest bioactivity against the majority of pathogenic indicators; MIC (S. capitis AY41): 6 * µg/mL; fold increase in potency compared to nisin A (S. capitis AY41; from MIC): 4 fold; fold more active compared to nisin A (S. capitis strains; some strains of S. capitis, purified peptides): 2–4 fold; time-kill outcome of single treatments (S. capitis AV80 [3]): inhibited bacterial growth over 4 h; susceptibility to proteolytic cleavage by NSR [4]: resist proteolytic cleavage by NSR; fold increase in potency compared to nisin A (S. capitis BA06; from MIC): 2 fold
